According to the supplement of paper PMC10307832:

What was measured:
Assay in all cases: relative viability (nuclei count vs DMSO), 5 days (fraction); higher = more cells survive
[1] = compound: CC[C@H](CO)Nc1nc(NCc2ccccc2)c2ncn(C(C)C)c2n1 [Seliciclib] + Nc1nc2[nH]cc(CCc3ccc(C(=O)N[C@@H](CCC(=O)O)C(=O)O)cc3)c2c(=O)[nH]1 [Pemetrexed] (partner 0.2 µM)
How it was run: (§1)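 One day after seeding in 1536-well plates, lung cancer cell lines were dosed by pin tool. Dosing was either single-drug or a fixed anchor-drug dose plus five library-drug doses (not always all listed) in √10 steps. After 5 days, nuclei were stained in one fix-and-stain step and counted on 4× images, and relative viability is the nuclei count of treated wells over that of vehicle wells, given as the median of duplicate plates.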

[2] = compound: CC[C@H](CO)Nc1nc(NCc2ccccc2)c2ncn(C(C)C)c2n1 [Seliciclib] + Cc1nc(NC(=O)N2CCC[C@H]2C(N)=O)sc1-c1ccnc(C(C)(C)C(F)(F)F)c1 [Alpelisib] (partner 2 µM)
How it was run: as §1

[3] = compound: CC[C@H](CO)Nc1nc(NCc2ccccc2)c2ncn(C(C)C)c2n1 [Seliciclib] + COc1cc2c(Oc3ccc(NC(=O)C4(C(=O)Nc5ccc(F)cc5)CC4)cc3F)ccnc2cc1OCCCN1CCOCC1 [Foretinib] (partner 0.25 µM)
How it was run: as §1

[4] = compound: CC[C@H](CO)Nc1nc(NCc2ccccc2)c2ncn(C(C)C)c2n1 [Seliciclib] + O=C(c1cc(Cc2n[nH]c(=O)c3ccccc23)ccc1F)N1CCN(C(=O)C2CC2)CC1 [Olaparib] (partner 8 µM)
How it was run: as §1

Row | Cell Line | relative viability ([1]; first compound 0.08 µM) | relative viability ([1]; first compound 0.253 µM) | relative viability ([1]; first compound 0.8 µM) | relative viability ([1]; first compound 2.53 µM) | relative viability ([1]; first compound 8 µM) | relative viability ([2]; first compound 0.08 µM) | relative viability ([2]; first compound 0.253 µM) | relative viability ([2]; first compound 0.8 µM) | relative viability ([2]; first compound 2.53 µM) | relative viability ([2]; first compound 8 µM) | relative viability ([3]; first compound 0.08 µM) | relative viability ([3]; first compound 0.253 µM) | relative viability ([3]; first compound 0.8 µM) | relative viability ([3]; first compound 2.53 µM) | relative viability ([3]; first compound 8 µM) | relative viability ([4]; first compound 0.08 µM) | relative viability ([4]; first compound 0.253 µM) | relative viability ([4]; first compound 0.8 µM) | relative viability ([4]; first compound 2.53 µM) | relative viability ([4]; first compound 8 µM)
1 | NCI-H2228 | 0.325 | 0.326 | 0.337 | 0.34 | 0.344 | 0.639 | 0.69 | 0.936 | 0.658 | 0.63 | 0.931 | 0.826 | 0.727 | 0.856 | 0.591 | 0.905 | 0.649 | 0.741 | 0.577 | 0.654
2 | NCI-H727 |  |  |  |  |  | 0.571 | 0.696 | 0.49 | 0.526 | 0.538 | 0.905 | 0.917 | 0.716 | 0.661 | 0.896 | 0.873 | 0.805 | 0.596 | 0.74 | 0.731
3 | NCI-H650 | 1.06 | 0.905 | 1.07 | 0.73 | 0.825 | 1.05 | 1.02 | 1.35 |  | 0.872 | 1.03 | 1.03 | 0.912 | 0.842 | 0.856 | 0.354 | 0.368 | 0.417 | 0.305 | 0.37
4 | NCI-H520 | 0.535 | 0.627 | 0.657 | 0.654 | 0.619 | 0.897 | 0.682 | 0.831 | 1.02 | 0.931 | 0.759 |  | 0.826 | 0.76 | 0.858 | 0.327 | 0.396 | 0.318 | 0.346 | 0.388
5 | EBC-1 |  |  |  |  |  | 0.901 | 0.88 | 0.895 | 0.828 | 0.616 | 0.124 | 0.103 | 0.105 | 0.125 | 0.108 | 0.712 | 0.651 | 0.734 | 0.665 | 0.461
6 | NCI-H661 | 0.839 | 1.03 | 0.921 | 0.82 | 0.806 | 0.736 | 0.781 | 0.653 | 0.437 | 0.5 | 1.03 | 0.936 | 0.975 | 0.945 | 0.636 | 0.674 | 0.768 | 0.695 | 0.724 | 0.674
7 | NCI-H1299 |  |  |  |  |  | 1.02 | 1.17 | 1.1 | 1.08 | 0.986 | 1.11 | 1.2 | 1.08 | 1.07 | 1.09 | 0.967 | 1.08 | 0.957 | 0.949 | 0.954
8 | LK-2 | 0.25 | 0.274 | 0.266 | 0.166 | 0.195 | 1.05 | 0.968 | 0.955 | 1.17 | 0.822 | 1.13 | 1.08 | 0.776 | 0.85 | 0.977 | 0.817 | 0.723 | 0.739 | 0.398 | 0.718
9 | NCI-H1993 | 0.601 | 0.597 | 0.608 | 0.507 | 0.456 | 0.728 | 0.708 | 0.716 | 0.688 | 0.669 | 0.742 | 0.722 | 0.723 | 0.694 | 0.756 | 0.892 | 0.935 | 1.05 | 0.976 | 1.01
10 | NCI-H838 | 0.246 | 0.28 | 0.242 | 0.263 | 0.239 | 0.971 | 0.853 | 0.884 | 1.14 | 0.94 | 0.902 | 0.928 | 0.998 | 1.11 | 0.808 | 0.729 | 0.765 | 0.762 | 0.773 | 0.635
11 | NCI-H1437 | 0.32 | 0.358 | 0.333 | 0.315 | 0.306 | 0.919 | 0.855 | 1.02 | 1.02 | 0.935 | 1.2 | 1.31 | 1.26 | 1.31 | 1.18 | 0.641 | 0.665 | 0.595 | 0.607 | 0.431
12 | SW 900 | 0.515 | 0.501 | 0.484 | 0.451 | 0.406 |  |  |  |  |  | 0.802 | 0.995 | 0.784 | 0.765 | 0.891 | 0.769 | 0.89 | 0.79 | 0.721 | 0.437
13 | NCI-H1650 | 0.429 | 0.346 | 0.36 | 0.427 | 0.399 |  |  |  |  |  | 0.984 | 1.1 | 0.956 | 1.35 | 0.981 | 0.576 | 0.804 | 0.754 | 0.666 | 0.756
14 | IA-LM |  |  |  |  |  | 0.645 | 0.935 | 0.599 | 0.979 | 0.556 | 1.18 | 1.48 | 1.04 | 1.1 | 0.925 | 0.8 | 0.973 | 0.879 | 0.72 | 0.745
15 | NCI-H1563 | 0.8 | 0.716 | 0.85 | 0.698 | 0.668 | 0.952 | 0.872 | 0.954 | 0.927 | 0.882 | 0.922 | 0.803 | 0.932 | 0.941 | 0.86 |  |  |  |  | 
16 | HCC-44 | 0.631 | 0.676 | 0.684 | 0.617 | 0.645 | 0.845 | 0.834 | 0.798 | 0.74 | 0.707 |  |  |  |  |  | 0.978 | 1.03 | 1.01 | 0.966 | 0.973
17 | NCI-H2342 | 0.748 | 0.779 | 0.752 | 0.693 | 0.711 |  |  |  |  |  | 0.91 | 0.882 | 1.06 | 1.14 | 0.935 | 0.417 | 0.394 | 0.347 | 0.429 | 0.453
18 | ABC-1 |  |  |  |  |  | 0.819 | 0.888 | 0.775 | 0.964 | 0.931 | 1.04 | 0.987 | 1.17 | 1.02 | 1.2 | 0.864 | 0.741 | 0.615 |  | 0.782
19 | NCI-H522 | 1.11 | 0.917 | 1.18 | 1.01 | 0.914 |  |  |  |  |  |  |  |  |  |  | 0.797 | 0.621 | 0.533 | 0.64 | 0.59
20 | NCI-H1792 | 0.795 | 0.694 | 0.82 |  | 0.868 | 0.765 | 0.725 | 0.719 | 0.682 | 0.633 |  |  |  |  |  | 0.338 | 0.341 | 0.399 |  | 0.322
